Source: ChEMBL document CHEMBL4177564, “Pyrrolo[2,1-f][1,2,4]triazines: From C-nucleosides to kinases and back again, the remarkable journey of a versatile nitrogen heterocycle” (Bioorg Med Chem Lett, 2017)
pIC50: −log10 of the molar value.

How the values were obtained:
[1] = target: Ubiquitin carboxyl-terminal hydrolase 7 (Homo sapiens, UniProt Q93009); test: Inhibition of His6-tagged USP7 (208 to 1102 residues) (unknown origin) using ubiquitin-rhodamine110 as substrate preincubated for 30 mins followed by substrate addition measured after 20 mins by fluorescence assay
Ubiquitin carboxyl-terminal hydrolase 7, sequence (Q93009 whole entry, the tested form may be a part): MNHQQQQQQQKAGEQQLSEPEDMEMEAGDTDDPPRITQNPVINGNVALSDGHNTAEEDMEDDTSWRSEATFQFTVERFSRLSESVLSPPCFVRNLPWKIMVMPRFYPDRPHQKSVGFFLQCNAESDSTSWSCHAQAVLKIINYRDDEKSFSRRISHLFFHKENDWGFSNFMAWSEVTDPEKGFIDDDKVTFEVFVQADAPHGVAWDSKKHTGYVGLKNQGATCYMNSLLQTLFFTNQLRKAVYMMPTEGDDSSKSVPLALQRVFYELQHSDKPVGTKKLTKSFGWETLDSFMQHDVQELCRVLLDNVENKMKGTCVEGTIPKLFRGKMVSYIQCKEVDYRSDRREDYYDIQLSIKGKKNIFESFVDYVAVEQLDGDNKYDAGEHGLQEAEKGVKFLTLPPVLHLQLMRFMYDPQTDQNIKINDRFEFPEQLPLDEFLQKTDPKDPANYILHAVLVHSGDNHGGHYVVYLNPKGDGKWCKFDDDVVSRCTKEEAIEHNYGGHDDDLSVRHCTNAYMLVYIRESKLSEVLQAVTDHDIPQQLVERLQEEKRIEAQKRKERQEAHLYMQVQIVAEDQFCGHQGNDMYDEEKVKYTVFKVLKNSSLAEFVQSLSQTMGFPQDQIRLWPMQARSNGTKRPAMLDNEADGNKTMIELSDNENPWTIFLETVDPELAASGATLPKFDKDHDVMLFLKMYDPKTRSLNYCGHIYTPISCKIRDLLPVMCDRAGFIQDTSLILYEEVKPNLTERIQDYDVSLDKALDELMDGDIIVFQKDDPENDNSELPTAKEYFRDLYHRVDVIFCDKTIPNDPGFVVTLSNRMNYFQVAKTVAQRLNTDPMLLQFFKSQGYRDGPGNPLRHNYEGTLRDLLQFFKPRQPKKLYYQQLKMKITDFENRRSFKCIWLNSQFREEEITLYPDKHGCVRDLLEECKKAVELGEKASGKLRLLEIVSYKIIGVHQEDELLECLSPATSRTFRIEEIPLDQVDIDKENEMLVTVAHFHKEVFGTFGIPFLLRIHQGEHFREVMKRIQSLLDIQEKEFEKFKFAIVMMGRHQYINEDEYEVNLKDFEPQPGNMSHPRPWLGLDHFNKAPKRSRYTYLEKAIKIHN

[2] = target: Potassium voltage-gated channel subfamily A member 5 (Homo sapiens) (UniProt P22460); test: Inhibition of human Kv1.5 expressed in mouse L929 cells assessed as reduction in channel current at 0.3 uM by patch clamp method relative to control; assay type: cell-based
Potassium voltage-gated channel subfamily A member 5 (Homo sapiens), sequence (P22460 whole entry): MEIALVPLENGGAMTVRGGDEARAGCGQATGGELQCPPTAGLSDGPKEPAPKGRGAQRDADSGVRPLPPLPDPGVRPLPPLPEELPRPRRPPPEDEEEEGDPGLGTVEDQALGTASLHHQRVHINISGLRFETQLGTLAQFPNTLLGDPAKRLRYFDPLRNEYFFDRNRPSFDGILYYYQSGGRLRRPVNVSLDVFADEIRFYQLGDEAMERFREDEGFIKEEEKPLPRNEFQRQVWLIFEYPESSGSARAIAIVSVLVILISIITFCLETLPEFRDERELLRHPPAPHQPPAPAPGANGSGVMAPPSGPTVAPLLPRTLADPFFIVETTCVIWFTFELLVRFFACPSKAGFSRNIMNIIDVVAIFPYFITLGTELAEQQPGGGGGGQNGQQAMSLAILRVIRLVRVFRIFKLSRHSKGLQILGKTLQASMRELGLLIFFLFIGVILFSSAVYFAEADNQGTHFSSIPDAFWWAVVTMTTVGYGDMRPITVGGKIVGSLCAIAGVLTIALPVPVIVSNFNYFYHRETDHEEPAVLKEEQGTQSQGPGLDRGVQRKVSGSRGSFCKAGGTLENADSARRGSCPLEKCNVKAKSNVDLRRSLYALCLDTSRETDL

Row | SMILES | pIC50 [1] | inhibition [2] [%]
1 | C[C@H](CC(=O)N1CCC(O)(Cn2cnn3cccc3c2=O)CC1)c1ccccc1 | > 6.70 | –
2 | NS(=O)(=O)c1cncc(-c2nc(NCc3ccccc3)c3c(-c4ccccc4)ccn3n2)c1 | – | > 95
